Measured values: patent US6365616B1, “Methimazole derivatives and tautomeric cyclic thiones to treat autoimmune diseases” (Sentron Medical, Inc., priority 1998, dated 2002)
Like-named read-outs stand apart in the source and are kept apart here.

What was measured:
[1] = test system: HLA-DRα class II promoter; assay: Transient transfection CAT assay, HLA-DRα class II promoter chimeras in FRTL-5 cells; type: cell-based
Description: Construction of the HLA-DR promoter constructs has also been described as have been their characteristics (Reimold A M, et al., ibid (1993)). Additional CAT constructs were constructed by PCR, using the HLA-DRα-CAT chimera containing −176 to +45 of 5′-flanking region as template and various primers (Montani V. et al., ibid (1998a,b)). For example, a plasmid containing −38 to +45 bp of the 5′-flanking region of HLA-DRα was constructed with the following primers: a 5′ primer with a 5′ Sph I restriction site, 5′-[…]-3′ and a 3′ primer, 5′-[…]-3′, with an Xba I restriction site (Montani V., et al., ibid (1998a,b)). The PCR products were purified by phenol-chloroform extraction, digested with Xba I and Sph I, purified from a 2% agarose gel with Jet Sorb (Genomed, Frederick, Md.), dephosphorylated with calf intestinal alkaline phosphatase (New England Biolabs, Beverly, Mass.), and religated (DNA ligation kit, Takara Biochemical, Inc., Berkeley, Calif.) into the pCAT-Basic Vector (Promega, Madison, Wis.) at the Sph I and Xba I sites as described (Reimold AM, et al., ibid (1993); Montani V., et al., ibid (1998a,b)).
To measure the promoter activity of MHC class II promoter constructs, transient transfections in FRTL-5 cells were performed, using one of the following procedures (Montani V., et al., ibid (1998a, b)). In one, FRTL-5 cells were cultivated in 6H medium to approximately 80% confluency, harvested, washed, and resuspended (1.5×10^7 cells/ml) in 0.85 ml electroporation buffer (272 mM sucrose, 7 mM sodium phosphate buffer pH 7.4, and 1 mM MgCl2). Plasmid DNA was added, 20 μg of the CAT chimera together with 2 μg pRSV-luciferase which is used to measure the efficiency of transfection. Cells were pulsed (330 V; capacitance 25 μfarad), plated (6×10^6 cells/10 cm dish), and cultured in 6H medium plus 5% calf serum supplemented or not with γ-IFN. At the times noted, cells were harvested for CAT and luciferase assays. The second procedure differed as follows. FRTL-5 cells were grown to 80% confluency in 6H medium, then maintained 6 days in 5H medium plus 5% calf serum. Cells were returned to 6H medium for 12 hours, transfected as described above, and maintained in 6H medium plus 5% calf serum for twelve hours. The medium was then changed to fresh 5H medium with 5% calf serum supplemented or not with γ-IFN. […] CAT activity was measured as described above and values were normalized to luciferase activity measured using the Promega (Madison, Wis.) assay system.
To test the effect of MMI, MMI derivatives or tautomeric cyclic thiones on γ-IFN-increased class II expression in FRTL-5 thyroid cells, the following procedure was used. Transient transfections with the −137 bp or −176 bp DRα-CAT chimeras were performed as described and treated with 100 U/ml γ-IFN for the noted times starting 12 hours after transfection. […]
In this experiment, like previous experiments, transient transfections were performed in FRTL-5 cells grown to 80% confluency in 6H medium, maintained 6 days in SH medium, and returned to 6H medium for 12 h before transfection as described. Twelve hours later, the medium was changed to fresh 5H medium, supplemented or not with 100 U/ml γ-IFN and/or 5 mM MMI. CAT activity was measured 48 h thereafter. […] Results are the mean ±SD of 3 separate experiments.

[2] = test system: HLA-DRα class II promoter; assay: Luciferase assay, FRTL-5 cells stably transfected with HLA-DRα class II promoter-luciferase chimeras; type: cell-based; conditions: 40 hours; for inhibition at 10 µM / inhibition at 100 µM / inhibition at 1000 µM: FRTL-5, read-out: % inhibition of IFN-increased p(−137)LUC class II promoter activity; for inhibition at 10 µM / inhibition at 100 µM / inhibition at 1000 µM / % inhibition of IFN-increased p(−137)LUC class II promoter activity / Luciferase activity +γ-IFN: 100 U/ml γ-interferon; for inhibition at 10 µM / inhibition at 100 µM / inhibition at 1000 µM / % inhibition of IFN-increased p(−137)LUC class II promoter activity: 6H medium
Description: Similarly, the HLA DRα promoter constructs, p(−176)CAT and p(−137)CAT, inserted into the pCAT-Basic vector were released by restriction enzyme digestion, purified from agarose gel using QIAEX (QIAGEN, Chatsworth, Calif.), and used as templates for the construction by PCR of inserts with a 5′ flanking Mlul restriction site. The PCR products were purified by phenol-chloroform extraction, digested with MluI and XbaI, purified from agarose gels using QIAEX (QIAGEN, Chatsworth, Calif.) and ligated in the MluI-NheI site of the PGL-2 basic vector (PROMEGA, Madison, Wis.) using the DNA ligation kit from TAKARA biomedicals (TAKARA SHUZO Co.). JM1I9 bacterial competent cells (PROMEGA, Madison, Wis.) were transformed with the ligation reaction and plated in agar plates for 12 h at 37° C. The colonies were picked and screened with minipreps using QIAprep spin plasmid kit (QIAGEN, Chatsworth, Calif.) and restriction enzyme digestion. The plasmids were then purified by CsCI gradient centrifugation.
The PD1-PGL-2 basic constructs and the Class II-PGL-2 basic constructs were stably transfected in the FRTL-5 cells using a Lipofectamine (GIBCO, Life Technologies, Inc.) method. Near confluent cells in 6H medium were cotransfected with 20 μg of plasmid DNA and 2 μg of a pcDNA3neo or a pPUR selection vector (CLONTECH, Palo Alto, Calif.). After 24-48 hours, 400 μg/ml of G418 (GIBCO, Life Technologies, Inc.) or 10 μM of puromycin (SIGMA) were added to the medium. After 3 weeks the antibiotic-resistant colonies were cloned by limiting dilution and screened to determine their interferon sensitivity. At least 5 cell lines of each construct were isolated, each of whose activity was increased by adding 100 U/ml γ interferon to the medium of the cells. The following data (Tables 10-13) were obtained with one clone of each of the class I or class II-luciferase chimera, but were representative of at least three other clones of each.
Luciferase activity was measured using the Luciferase assay system (PROMEGA, Madison, Wis.). Briefly, treated or untreated cells from a 100 mm culture dish were washed with PBS, scraped and collected in microfuge tubes. The pellet was dissolved in 100 μl 1× reporter lysis buffer and incubated at room temperature for 15 minutes. Cells were frozen in dry ice plus ethanol and thawed in water at room temperature. After vortexing for 10 sec, tubes were centrifuged at 12,000×g for 5 min. Twenty μl of the supernatant were mixed with 100 μl of Luciferase assay reagent and immediately placed in a luminometer. Light was measured for a period of 10 sec after a 2 sec delay.
Treatment of cells, maintained either in the presence of TSH or its absence, with 100 U/ml interferon, increased class I and class II promoter activity (Table 10). In this experiment FRTL-5 cells were grown to 80% confluency in 6H medium with TSH then treated with 100 U/ml γ-interferon, 5 mM MMI or both together. Luciferase activity was measured after 40 hours as described. Several points are notable. First, interferon increases both class I and class II promoter activity in the stable transfectants. Second, MMI inhibits both interferon-increased class I and interferon-increased class II promoter activity.

[3] = FRTL-5, 10 μM, 100 U/ml γ-interferon, 6H medium, read-out: % inhibition of IFN-increased p(−137)CAT class II promoter activity
[4] = FRTL-5, 100 μM, 100 U/ml γ-interferon, 6H medium, read-out: % inhibition of IFN-increased p(−137)CAT class II promoter activity
[5] = FRTL-5, 0.5 mM, 100 U/ml γ-interferon, 6H medium, read-out: % inhibition of IFN-increased p(−137)CAT class II promoter activity
[6] = FRTL-5, read-out: % inhibition of IFN-increased p(−137)CAT class II promoter activity
[7] = FRTL-5, 5 mM, 100 U/ml γ-interferon, 6H medium, read-out: % inhibition of IFN-increased p(−137)CAT class II promoter activity
[8] = 10 μM, 100 U/ml γ-interferon, 6H medium
[9] = 100 μM, 100 U/ml γ-interferon, 6H medium
[10] = 0.5 mM, 100 U/ml γ-interferon, 6H medium
[11] = 5 mM, 100 U/ml γ-interferon, 6H medium

| Molecule | inhibition at 10 µM [1, 3] | inhibition at 100 µM [1, 4] | inhibition at 500 µM [1, 5] | inhibition at 10 µM ([2]; 10 μM) | inhibition at 100 µM ([2]; 100 μM) | inhibition at 1000 µM ([2]; 1 mM) | inhibition at 5000 µM [1, 7] | other results |
| --- | --- | --- | --- | --- | --- | --- | --- | --- |
| Cn1c(-c2ccccc2)cnc1S [Compound 10, 5-Phenylmethimazole] | 45 ± 17% | 88 ± 15% | 95 ± 5% | 43 ± 20% | 80 ± 7% | 92 ± 10% |  |  |
| Sc1nc2ccccc2[nH]1 [Compound 4, 2-Mercaptobenzimidazole] |  |  |  |  |  |  |  | inhibition at 10 µM [1, 6]: 0%; inhibition at 100 µM [1, 6]: 0%; inhibition at 500 µM [1, 6]: 29 ± 12%; inhibition at 5000 µM [1, 6]: 73 ± 14% |
| CSc1nccn1C [Compound 7, S-Methylmethimazole] | 0% | 20 ± 15% | 75 ± 6% | 0% | 30 ± 7% | 68 ± 10% | 84 ± 15% |  |
| O=[N+]([O-])c1ccc2[nH]c(S)nc2c1 [Compound 5, 2-Mercapto-5-nitrobenzimidazole] |  |  |  |  |  |  | 39 ± 13% |  |
| Cn1ccn(C)c1=S [Compound 8, N-Methylmethimazole] |  |  |  |  |  |  |  | % inhibition of IFN-increased p(−137)CAT class II promoter activity [1, 8]: 0%; % inhibition of IFN-increased p(−137)CAT class II promoter activity [1, 9]: 43 ± 9%; % inhibition of IFN-increased p(−137)CAT class II promoter activity [1, 10]: 79 ± 11%; % inhibition of IFN-increased p(−137)CAT class II promoter activity [1, 11]: 88 ± 10%; % inhibition of IFN-increased p(−137)LUC class II promoter activity ([2]; 10 μM): 0%; % inhibition of IFN-increased p(−137)LUC class II promoter activity ([2]; 100 μM): 43 ± 5%; % inhibition of IFN-increased p(−137)LUC class II promoter activity ([2]; 1 mM): 84 ± 9% |
| Sc1ncc[nH]1 [Compound 3, 2-Mercaptoimidazole] |  |  |  |  |  |  |  | % inhibition of IFN-increased p(−137)CAT class II promoter activity [1, 8]: None; % inhibition of IFN-increased p(−137)CAT class II promoter activity [1, 9]: None; % inhibition of IFN-increased p(−137)CAT class II promoter activity [1, 10]: None; % inhibition of IFN-increased p(−137)CAT class II promoter activity [1, 11]: None |
| Cn1ccnc1S [Compound 1, 1-Methylimidazole-2-thiol] | 0% | 0% | 44 ± 6% | 0% | 0% | 37 ± 10% | 87 ± 9% | Luciferase activity + 5 mM MMI ([2]; −137 HLA-DRα-LUC): 103 ± 6 % Control; Luciferase activity + 5 mM MMI ([2]; −167 HLA-DRα-LUC): 99 ± 5 % Control |
| Cc1cnc(S)n1C [Compound 9, 5-Methylmethimazole] | 0% | 0% | 14 ± 12% |  |  |  | 44 ± 18% |  |
| Cc1ncc([N+](=O)[O-])n1CCO [Compound 2, 2-Methyl-5-nitro-1-imidazole ethanol] | 0% | 0% | 55 ± 10% | 0% | 7 ± 6% | 65 ± 9% | 80 ± 4% |  |
| Cc1ccc2[nH]c(S)nc2c1 [Compound 6, 2-Mercapto-5-methylbenzimidazole] |  |  |  |  |  |  | 44 ± 8% |  |
| γ-IFN: rat recombinant γ-interferon, 100 U/ml, used to increase MHC class I and class II expression in FRTL-5 cells (protein, UniProt P01581 23-156, looked up) Interferon gamma: QGTLIESLESLKNYFNSSSMDAMEGKSLLLDIWRNWQKDGNTKILESQIISFYLRLFEVLKDNQAISNNISVIESHLITNFFSNSKAKKDAFMSIAKFEVNNPQIQHKAVNELIRVIHQLSPESSLRKRKRSRC |  |  |  |  |  |  |  | Luciferase activity +γ-IFN ([2]; −137 HLA-DRα-LUC): 695 ± 42 % Control; Luciferase activity +γ-IFN ([2]; −167 HLA-DRα-LUC): 790 ± 45 % Control |
